# Data published in publication PMC9405123, “Design, Synthesis and Mechanistic Studies of Novel Isatin-Pyrazole Hydrazone Conjugates as Selective and Potent Bacterial MetAP Inhibitors” (Antibiotics, 2022).
# How the values were obtained:
# HsMetAP1b = biological target: T1, HsMetAP1b (Homo sapiens, UniProt P53582); test: MetAP enzyme inhibition, Morrison Ki (Met-AMC fluorescence); assay type: biochemical, H. sapiens; details: Morrison Ki method
# T1 construct: made in house
# E. coli [1] = test: Growth inhibition screening (broth dilution); assay type: cell-based, Escherichia coli
# In short: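 Standard NCCLS broth dilution in nutrient broth, with compounds dissolved in DMSO and tested at a final 250 µg/mL per well. About 2.5 × 10^5 cells/mL were inoculated and incubated overnight at 37 °C. Growth was read as culture turbidity at 590 nm.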
# S. aureus = test: Minimum inhibitory concentration (broth dilution); assay type: cell-based; details: Staphylococcus aureus, alone
# E. coli [2] = test: Minimum inhibitory concentration (broth dilution); assay type: cell-based, Escherichia coli; details: Escherichia coli, alone, read-out: MIC
# E. coli [3] = test: Minimum bactericidal concentration; assay type: cell-based, Escherichia coli
# P. aeruginosa = test: Growth kinetics; assay type: cell-based, Pseudomonas aeruginosa
# Procedure: Bacterial strains were tested as mentioned in Habib et al.. Briefly, ½ MIC, MIC and 2MIC values of PS9 were taken to assess the growth of bacterial strains whereas untreated cells and media were taken as positive and negative control, respectively.
# E. coli [4] = test: Time-kill curve assay; assay type: cell-based, Escherichia coli
# Procedure: A time–kill curve study was performed against bacterial strains (E. coli, E. faecalis, K. pneumonia and P. aeruginosa) to determine whether compound PS9 is bactericidal or bacteriostatic. MIC, 2MIC and 4MIC concentrations were employed for the time–kill assay as explained by Ali et al.. Untreated bacterial cells were used as a control. 100 µL aliquot was taken from each flask at regular intervals. An aliquot was further diluted in phosphate buffer saline solution and from each concentration 50 µL aliquot was inoculated on a nutrient agar plate and spread. Colonies were counted after the incubation of the plate at 37 °C. For each strain, the average (mean) colony count data (log10 CFU/mL) was plotted against time.
# Cytotoxicity assay (MTT) = assay type: cell-based; details: human, HEK293 cells, read-out: viable HEK293 cells
# Procedure: PS9 was tested for cytotoxicity against human embryonic kidney (HEK293) cells using a colorimetric MTT assay. HEK293 cells were grown at 37 °C in a humidified environment of 5% CO2 in DMEM media enriched with 10% FBS and 1% penicillin, streptomycin solution. HEK293 cells (1 × 10^4) were seeded in triplicate and incubated overnight in a CO2 incubator. After the treatment (5–200 μM) with PS9, the cells were kept for 48 h at 37 °C. Freshly prepared 5 mg/mL MTT was supplied to the samples and kept on incubation at 37 °C for 4–5 h. DMSO was added to solubilize the formazan crystals. A microplate reader (Bio-Rad, Hercules, CA, USA) was used for taking absorbance at 570 nm and all the experiments were done in triplicate.
# G. mellonella larvae = test: In vivo toxicological assessment, larval survival; set-up: species or system Galleria mellonella; details: 100, 250, 500, 750 and 1000 μg/mL; up to 5 days
# Procedure: The objective of this experiment was to assess the in vivo toxicity of PS9 using larvae of G. mellonella. […] The results obtained using Galleria larvae show a strong correlation to those generated using mammals and larvae have the advantage of producing results within 48 h, being inexpensive to purchase and house, and being free from the legal and ethical restrictions that affect mammalian testing. Larvae can also be used to assess toxicity and there is a strong correlation between the toxicity of compounds in larvae and mammals.
# PS9 stock solutions were prepared in DMSO (≤10%) and deionized water and maintained at room temperature.
# The greater wax G. mellonella sixth instar larvae were purchased from Live foods Direct Ltd. Sheffield, UK, and kept in the dark at 15 °C to suspend pupation. Healthy larvae with no appearance of melanization and weighing 150–250 mg were selected and stored in sterile nine cm Petri dishes containing wood shavings.
# HK91 [5] = test: MBC on environmental MDR isolate; details: Ralstonia
# LG1 [6] = test: MBC on environmental MDR isolate
# B. subtilis = test: Combination study with AMP or CIP
# K. pneumoniae = test: Combination study with AMP or CIP
# HK41 = test: MIC on environmental MDR isolate (microdilution); details: Enterobacter cloacae
# HK91 [7] = test: MIC on environmental MDR isolate (microdilution); details: Ralstonia
# LG1 [8] = test: MIC on environmental MDR isolate (microdilution)
# LG20 = test: MIC on environmental MDR isolate (microdilution)
# LG33 = test: MIC on environmental MDR isolate (microdilution); details: Enterobacter
# LG51 = test: MIC on environmental MDR isolate (microdilution); details: Escherichia coli
# LG71 = test: MIC on environmental MDR isolate (microdilution); details: isolate LG71 Enterobacter cloacae
# P. aeruginosa PAO1 = test: In vivo antibacterial efficacy in infected larvae; details: P. aeruginosa infected larvae (1.5 × 10^9 CFU/mL); PS9 1000 μg/mL; 48 and 72 h
smiles,measurement,setting,value
"O=C1Nc2ccc(F)cc2/C1=N\NC(=O)c1cc(-c2cccc(Br)c2)n[nH]1 [PS9, (E)-3-(3-Bromophenyl)-N′-(5-Fluoro-2-Oxoindolin-3-Ylidene)-1H-Pyrazole-5-Carbohydrazide]",Ki,HsMetAP1b,632 ± 16.3 µM
same,inhibition at 250 µg/mL,E. coli [1]; Escherichia coli,≥ 94%
same,% Growth Inhibition at 250 µg/mL,E. coli [1]; listed as C00009,100%
same,MIC,S. aureus,32 µg/mL
same,MIC,E. coli [2],16 µg/mL
same,MBC/MIC Ratio (R*),E. coli [3],4
same,MBC,E. coli [3]; Escherichia coli,64 µg/mL
same,growth,P. aeruginosa; 2MIC and MIC,no growth observed up to 24 h
same,time after inoculation at which log phase was observed,P. aeruginosa; ½ MIC,8 h
same,killing (log10 CFU/mL with time),"E. coli [4]; 4MIC, after 16 h",significant eradication
same,killing (log10 CFU/mL with time),"E. coli [4]; MIC, till 16 h",no 100% eradication
same,"viability at 48 h, 100 µg/mL",Cytotoxicity assay (MTT); 100 µg/mL,> 90%
same,viability at 48 h,Cytotoxicity assay (MTT); up to 200 µg/mL,> 75%
same,larval survival,G. mellonella larvae,100%
same,MBC,HK91 [5],16 µg/mL
same,MBC,LG1 [6],128 µg/mL
same,MIC in Combination,B. subtilis; combination PS9 + AMP,4 µg/mL
same,MIC in Combination,B. subtilis; combination PS9 + CIP,8 µg/mL
same,FICI,B. subtilis; combination with AMP,0.62
same,Mode of Interaction,B. subtilis; combination with AMP,Indifferent (in between 0.5 and 4)
same,FICI,B. subtilis; combination with CIP,4.25
same,MIC in Combination,K. pneumoniae; combination PS9 + AMP,2 µg/mL
same,MIC in Combination,K. pneumoniae; combination PS9 + CIP,4 µg/mL
same,FICI,K. pneumoniae; combination with AMP,0.50
same,FICI,K. pneumoniae; combination with CIP,0.50
same,MIC,HK41,32 µg/mL
same,MIC,HK91 [7],2 µg/mL
same,MIC,LG1 [8],32 µg/mL
same,MIC,"LG20; Enterobacter, isolate LG20 Enterobacter sp.",< 1 µg/mL
same,MIC lower than AMP and CTX,LG20; isolate LG20,32 times
same,MIC,LG33,1000 µg/mL
same,MIC,LG51,1000 µg/mL
same,MIC,LG71; Enterobacter cloacae,1020 µg/mL
same,MIC,LG71,>1024 µg/mL
same,effect on death of infected larvae,P. aeruginosa PAO1,small protective effect
